# Experimental data taken from patent US9708325B2, “Sulfonimidoylpurinone compounds and derivatives for the treatment and prophylaxis of virus infection” (Hoffmann-La Roche Inc., priority 2015, dated 2017).
# Like-named read-outs stand apart in the source and are kept apart here.
# Tests used:
# human TLR7 = human TLR7 (Homo sapiens (Human), UniProt Q9NYK1); test: HEK-Blue-hTLR7 cells assay (SEAP reporter); format: cell-based; conditions: 20 hrs, read-out: HEK-Blue-hTLR7 (EC50 (μM))
# How it was run: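 HEK-Blue cells stably carrying human TLR7 and an NF-κB-driven SEAP reporter, preincubated 24 h, then exposed to serially diluted compound (1% DMSO final) for 20 h at 37 °C. Supernatant SEAP measured with QUANTI-Blue substrate, 2 h at 37 °C, absorbance read at 620–655 nm.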
# human TLR8 = human TLR8 (Homo sapiens (Human), UniProt Q9NR97); test: HEK-Blue-hTLR8 cells assay and selectivity index; format: cell-based
# Description: A stable HEK-Blue-hTLR8 cell line was purchased from InvivoGen (Cat.#: HEK-Blue-htlr8, San Diego, Calif., USA). These cells were designed for studying the stimulation of human TLR8 by monitoring the activation of NF-κB. […] Therefore the reporter expression was regulated by the NF-κB promoter upon stimulation of human TLR8 for 20 hrs. The cell culture supernatant SEAP reporter activity was determined using QUANTI-Blue™ kit (Cat.#: rep-qb1, Invivogen, San Diego, Ca, USA) at a wavelength of 640 nm, a detection medium that turns purple or blue in the presence of alkaline phosphatase.
# HEK-Blue-hTLR8 cells were incubated at a density of 250,000˜450,000 cells/mL in a volume of 180 μL in a 96-well plate in Dulbecco's Modified Eagle's medium (DMEM) containing 4.5 g/L glucose, 50 U/mL penicillin, […], […], 2 mM L-glutamine, 10% (V/V) heat-inactivated fetal bovine serum for 24 hrs. Then the HEK-Blue-hTLR8 cells were incubated with addition of 20 μL test compound in a serial dilution in the presence of final DMSO at 1% and perform incubation under 37° C. in a CO2 incubator for 20 hrs. Then 20 μL of the supernatant from each well was incubated with 180 μL Quanti-blue substrate solution at 37° C. for 2 hours and the absorbance was read at 620˜655 nm using a spectrophotometer. The signalling pathway that TLR8 activation leads to downstream NF-κB activation has been widely accepted, and therefore similar reporter assay was also widely used for evaluating TLR8 agonist (Tsuneyasu Kaisho and Takashi Tanaka, Trends in Immunology, Volume 29, Issue 7, July 2008, […]; Hiroaki Hemmi et al, Nature Immunology 3, 196-200 (2002)).
# The ratio of TLR8 agonism activity compared to TLR7 agonism activity was defined as the selectivity index (EC50 (TLR8) value/EC50(TLR7) value) and calculated accordingly.
# [1] = Metabolic stability in human liver microsomes
# How it was run: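 Test compound at 1 μM with 0.5 mg/mL microsomal protein in 100 mM potassium phosphate, pH 7.4, 37 °C, 10 min preincubation, reaction started with NADPH regenerating system. Sampled at 0, 3, 6, 9, 15 and 30 min, quenched with cold ACN, remaining parent by LC-MS/MS. No-NADPH controls at 0 and 30 min.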
# [2] = rat, IV 1 mpk, data from WO2016023511, cited from earlier work
# [3] = patients with chronic hepatitis B, phase Ib; cited from earlier work
# Chain of human TLR8 (Q9NR97 27-1041): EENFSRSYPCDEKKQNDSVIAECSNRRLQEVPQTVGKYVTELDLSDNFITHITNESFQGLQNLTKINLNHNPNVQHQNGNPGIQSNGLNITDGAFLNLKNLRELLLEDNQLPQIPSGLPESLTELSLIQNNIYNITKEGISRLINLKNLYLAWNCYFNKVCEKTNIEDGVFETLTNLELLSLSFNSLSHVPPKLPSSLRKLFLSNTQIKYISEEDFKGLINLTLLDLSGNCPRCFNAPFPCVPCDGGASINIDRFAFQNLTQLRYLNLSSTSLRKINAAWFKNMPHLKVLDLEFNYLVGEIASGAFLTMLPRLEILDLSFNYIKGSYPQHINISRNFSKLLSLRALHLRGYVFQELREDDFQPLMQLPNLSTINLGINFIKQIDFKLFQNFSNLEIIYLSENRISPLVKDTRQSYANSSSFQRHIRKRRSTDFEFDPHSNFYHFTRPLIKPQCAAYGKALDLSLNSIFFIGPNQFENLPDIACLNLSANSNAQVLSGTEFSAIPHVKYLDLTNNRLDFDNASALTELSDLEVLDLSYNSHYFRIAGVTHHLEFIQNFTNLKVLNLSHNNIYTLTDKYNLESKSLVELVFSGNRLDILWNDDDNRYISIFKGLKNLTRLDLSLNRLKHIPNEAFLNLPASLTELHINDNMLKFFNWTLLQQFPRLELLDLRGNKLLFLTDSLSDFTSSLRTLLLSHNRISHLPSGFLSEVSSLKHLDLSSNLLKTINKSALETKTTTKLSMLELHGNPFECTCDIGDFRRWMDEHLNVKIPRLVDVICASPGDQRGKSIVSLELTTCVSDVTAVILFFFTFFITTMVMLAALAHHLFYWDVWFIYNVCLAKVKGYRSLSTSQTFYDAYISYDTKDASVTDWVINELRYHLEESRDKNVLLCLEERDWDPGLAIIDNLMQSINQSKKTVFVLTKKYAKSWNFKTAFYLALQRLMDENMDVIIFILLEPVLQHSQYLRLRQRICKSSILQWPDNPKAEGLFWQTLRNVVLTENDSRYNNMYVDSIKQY
# Chain of human TLR7 (Q9NYK1 27-1049): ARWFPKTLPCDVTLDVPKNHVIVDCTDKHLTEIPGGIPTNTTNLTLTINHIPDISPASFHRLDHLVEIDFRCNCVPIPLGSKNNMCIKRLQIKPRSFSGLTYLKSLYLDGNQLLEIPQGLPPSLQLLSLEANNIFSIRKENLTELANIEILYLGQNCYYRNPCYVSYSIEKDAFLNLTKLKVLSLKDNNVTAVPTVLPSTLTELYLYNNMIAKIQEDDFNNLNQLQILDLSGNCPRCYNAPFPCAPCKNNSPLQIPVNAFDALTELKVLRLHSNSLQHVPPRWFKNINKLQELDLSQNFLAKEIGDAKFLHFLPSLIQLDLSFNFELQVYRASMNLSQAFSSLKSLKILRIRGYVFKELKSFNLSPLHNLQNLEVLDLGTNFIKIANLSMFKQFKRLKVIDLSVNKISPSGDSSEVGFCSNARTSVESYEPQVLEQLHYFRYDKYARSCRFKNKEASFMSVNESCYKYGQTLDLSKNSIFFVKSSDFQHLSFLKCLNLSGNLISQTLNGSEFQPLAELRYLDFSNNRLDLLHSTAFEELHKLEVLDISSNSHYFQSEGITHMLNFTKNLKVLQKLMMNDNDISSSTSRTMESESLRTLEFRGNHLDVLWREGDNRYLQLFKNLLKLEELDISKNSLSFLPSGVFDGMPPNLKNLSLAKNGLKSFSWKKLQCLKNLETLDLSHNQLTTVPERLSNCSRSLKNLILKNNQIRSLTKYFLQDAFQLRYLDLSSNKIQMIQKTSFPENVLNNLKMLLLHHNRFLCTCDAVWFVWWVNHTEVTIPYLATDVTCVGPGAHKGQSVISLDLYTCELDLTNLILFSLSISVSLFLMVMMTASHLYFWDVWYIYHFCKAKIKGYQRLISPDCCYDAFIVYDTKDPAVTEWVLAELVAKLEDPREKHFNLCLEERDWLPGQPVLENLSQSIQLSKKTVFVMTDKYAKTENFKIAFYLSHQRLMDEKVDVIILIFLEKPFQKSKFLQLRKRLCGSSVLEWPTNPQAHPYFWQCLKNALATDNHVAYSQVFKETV
compound,measurement,setting,value
CCCCOc1nc(N)c2c(n1)N(Cc1cccc(CN3CCCC3)c1)CC(=O)N2 [GS-9620],EC50,human TLR7,0.8 µM
same,EC50,human TLR8,11.6 µM
same,Selective index,human TLR8; EC50(TLR8) value/EC50(TLR7) value,14
same,Human Liver Microsome Clearance,"[1]; 1 μM test compound, 0.5 mg/mL microsomal protein, 6.15 mL/min/kg is the limitation of assay sensitivity",17.8 mL/min/kg
same,Human liver microsome clearance category,[1]; categorized low/medium/high,high (high (16.2-23.2 mL/min/kg))
same,Mean plasma concentration,[2]; 0.083 h,170 nM
same,Mean plasma concentration,[2]; 0.25 h,102 nM
same,Mean plasma concentration,[2]; 0.5 h,65.4 nM
same,Mean plasma concentration,[2]; 1 h,48.1 nM
same,Mean plasma concentration,[2]; 2 h,21.6 nM
same,Mean plasma concentration,[2]; 4 h,13 nM
same,Mean plasma concentration,[2]; 8 h,4.17 nM
same,CO,[2],220 nM
same,ISG15 mRNA induction,[3],dose-dependent ISG15 mRNA induction
same,Safety and tolerability,[3],"safe, well tolerated"
